Laboratory results from patent US20240109930A1, “TRIAZOLYL-METHYL SUBSTITUTED ALPHA-D-GALACTOPYRANOSIDE DERIVATIVES” (Idorsia Pharmaceuticals Ltd, priority 2021, published 2024).

What was measured:
human Gal-3 (hGal-3) = human Gal-3 (hGal-3) (Homo sapiens (Human), UniProt P17931); test: Competitive binding assay: biotinylated hGal-3 binding to microplate-adsorbed asialofetuin (ASF); conditions: IC50 values from several measurements given as geomean
Outline: (§1)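 Biotinylated hGal-3 or hGal-1 (preferably cysteine-free Cys→Ser mutant), 300–1000 ng/mL, competes with compound for ASF-coated wells for 3 h at 4 °C. Bound lectin detected with streptavidin-peroxidase (80 ng/mL, 1 h, 4 °C) and ABTS by absorbance; IC50 reported as geomean of several runs.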

human Gal-1 (hGal-1) = human Gal-1 (hGal-1) (Homo sapiens, UniProt P09382, C131S/C17S/C43S/C61S/C89S); test: Competitive binding assay: biotinylated hGal-1 binding to microplate-adsorbed asialofetuin (ASF); conditions: IC50 values from several measurements given as geomean
Outline: as §1

Chain of human Gal-3 (hGal-3) (P17931 whole entry): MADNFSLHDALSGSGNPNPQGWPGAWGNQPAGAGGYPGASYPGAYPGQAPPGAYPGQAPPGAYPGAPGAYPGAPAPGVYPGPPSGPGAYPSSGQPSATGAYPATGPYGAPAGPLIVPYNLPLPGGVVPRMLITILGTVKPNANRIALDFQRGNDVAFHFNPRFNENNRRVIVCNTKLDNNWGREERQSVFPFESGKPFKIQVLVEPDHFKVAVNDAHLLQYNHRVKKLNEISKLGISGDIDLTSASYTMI

Compound	IC50 (human Gal-3 (hGal-3))	IC50 (human Gal-1 (hGal-1))
CO[C@@H]1[C@@H](n2cc(-c3ccc(Br)c(F)c3F)nn2)[C@@H](O)[C@@H](CO)O[C@@H]1Cc1cn(C2(CF)CC2)nn1 [Ex 4.1.46., (2R,3R,4S,5R,6R)-4-(4-(4-bromo-2,3-difluorophenyl)-1H-1,2,3-triazol-1-yl)-6-((1-(1-(fluoromethyl)cyclopropyl)-1H-1,2,3-triazol-4-yl)methyl)-2-(hydroxymethyl)-5-methoxytetrahydro-2H-pyran-3-ol]	30 nM	1940 nM
CO[C@@H]1[C@@H](n2cc(-c3ccc(Cl)c(F)c3F)nn2)[C@@H](O)[C@@H](CO)O[C@@H]1Cc1cn(C2(C(F)F)CCOC2)nn1 (single isomer, unassigned) [Example 2.1.78.A]	40 nM	360 nM
CO[C@@H]1[C@@H](n2cc(-c3ccc(F)c(F)c3F)nn2)[C@@H](O)[C@@H](CO)O[C@@H]1Cc1cn(C23CC(C2)C3)nn1 [Ex 3.1.12.]	60 nM	950 nM
CO[C@@H]1[C@@H](n2cc(-c3ccc(Br)c(F)c3F)nn2)[C@@H](O)[C@@H](CO)O[C@@H]1Cn1cc(C23CC(C2)C3)nn1 [Ex 4.2.12.]	90 nM	3310 nM
CO[C@@H]1[C@@H](n2cc(-c3ccc(F)c(F)c3F)nn2)[C@@H](O)[C@@H](CO)O[C@@H]1Cc1cn(C2(CF)CCC2)nn1 [Ex 3.1.40., (2R,3R,4S,5R,6R)-6-((1-(1-(fluoromethyl)cyclobutyl)-1H-1,2,3-triazol-4-yl)methyl)-2-(hydroxymethyl)-5-methoxy-4-(4-(2,3,4-trifluorophenyl)-1H-1,2,3-triazol-1-yl)tetrahydro-2H-pyran-3-ol]	70 nM	260 nM
CO[C@@H]1[C@@H](n2cc(-c3ccc(C)c(F)c3F)nn2)[C@@H](O)[C@@H](CO)O[C@@H]1Cn1cc(C2(O)CCOCC2)nn1 [Ex 1.2.35.]	70 nM	4500 nM
CO[C@@H]1[C@@H](n2cc(-c3ccc(C)c(F)c3F)nn2)[C@@H](O)[C@@H](CO)O[C@@H]1Cc1cn(C2(CO)CCCC2)nn1 [Ex 1.1.5.]	50 nM	2570 nM
CO[C@@H]1[C@@H](n2cc(-c3ccc(Cl)c(F)c3F)nn2)[C@@H](O)[C@@H](CO)O[C@@H]1Cc1cn(C2CC2C(C)C)nn1 (some centres unmarked) [Ex 2.1.17.]	160 nM	11500 nM
COCC1(n2cc(C[C@H]3O[C@H](CO)[C@H](O)[C@H](n4cc(-c5ccc(C)c(F)c5F)nn4)[C@H]3OC)nn2)CC1 [Ex 1.1.7.]	60 nM	5100 nM
CO[C@@H]1[C@@H](n2cc(-c3ccc(Cl)c(F)c3F)nn2)[C@@H](O)[C@@H](CO)O[C@@H]1Cc1cn(C(C)(C)CF)nn1 [Ex 2.1.45.]	40 nM	1490 nM
CO[C@@H]1[C@@H](n2cc(-c3ccc(F)c(F)c3F)nn2)[C@@H](O)[C@@H](CO)O[C@@H]1Cc1cn(C2(C)CCC2)nn1 [Ex 3.1.13.]	30 nM	290 nM
COCC1(n2cc(C[C@H]3O[C@H](CO)[C@H](O)[C@H](n4cc(-c5ccc(C)c(F)c5F)nn4)[C@H]3OC)nn2)COC1 [Ex 1.1.21.]	40 nM	840 nM
CO[C@@H]1[C@@H](n2cc(-c3ccc(Cl)c(F)c3F)nn2)[C@@H](O)[C@@H](CO)O[C@@H]1Cc1cn(C2CC(C(F)(F)F)(C(F)(F)F)C2)nn1 [Ex 2.1.57.]	500 nM	28100 nM
CO[C@@H]1[C@@H](n2cc(-c3ccc(Cl)c(F)c3F)nn2)[C@@H](O)[C@@H](CO)O[C@@H]1Cc1cn(C23CCC(O)(CC2)CC3)nn1 [Ex 2.1.8.]	30 nM	4430 nM
CO[C@@H]1[C@@H](n2cc(-c3ccc(C#N)c(F)c3F)nn2)[C@@H](O)[C@@H](CO)O[C@@H]1Cc1cn(C2(C(F)F)COC2)nn1 [Ex 5.1.53., 4-(1-((2R,3R,4S,5R,6R)-2-((1-(3-(Difluoromethyl)oxetan-3-yl)-1H-1,2,3-triazol-4-yl)methyl)-5-hydroxy-6-(hydroxymethyl)-3-methoxytetrahydro-2H-pyran-4-yl)-1H-1,2,3-triazol-4-yl)-2,3-difluorobenzonitrile]	60 nM	1350 nM
CO[C@@H]1[C@@H](n2cc(-c3ccc(Cl)c(F)c3F)nn2)[C@@H](O)[C@@H](CO)O[C@@H]1Cc1cn(C23CC(OC)(C2)C3)nn1 [Ex 2.1.29.]	60 nM	2100 nM
CO[C@@H]1[C@@H](n2cc(-c3ccc(F)c(F)c3F)nn2)[C@@H](O)[C@@H](CO)O[C@@H]1Cc1cn(C2(CCO)COC2)nn1 [Ex 3.1.22.]	60 nM	420 nM
CO[C@@H]1[C@@H](n2cc(-c3ccc(C)c(F)c3F)nn2)[C@@H](O)[C@@H](CO)O[C@@H]1Cc1cn(C2CC3(CC3)C2)nn1 [Ex 1.1.26.]	60 nM	17100 nM
CO[C@@H]1[C@@H](n2cc(-c3ccc(C#N)c(F)c3F)nn2)[C@@H](O)[C@@H](CO)O[C@@H]1Cc1cn([C@H]2CCOC[C@@H]2F)nn1 [Ex 5.1.66.CD]	30 nM	1600 nM
CO[C@@H]1[C@@H](n2cc(-c3ccc(Br)c(F)c3F)nn2)[C@@H](O)[C@@H](CO)O[C@@H]1Cn1cc(C2(O)CC2)nn1 [Ex 4.2.36.]	130 nM	5910 nM
CO[C@@H]1[C@@H](n2cc(-c3ccc(Cl)c(F)c3F)nn2)[C@@H](O)[C@@H](CO)O[C@@H]1Cc1cn([C@H]2CCC[C@H]2F)nn1 [Example 2.1.79.B, (2R,3R,4S,5R,6R)-4-(4-(4-chloro-2,3-difluorophenyl)-1H-1,2,3-triazol-1-yl)-6-((1-((1S,2R)-2-fluorocyclopentyl)-1H-1,2,3-triazol-4-yl)methyl)-2-(hydroxymethyl)-5-methoxytetrahydro-2H-pyran-3-ol]	30 nM	3160 nM
CO[C@@H]1[C@@H](n2cc(-c3ccc(F)c(F)c3F)nn2)[C@@H](O)[C@@H](CO)O[C@@H]1Cc1cn(C(C)(C)C(F)F)nn1 [Ex 3.1.28., (2R,3R,4S,5R,6R)-6-((1-(1,1-difluoro-2-methylpropan-2-yl)-1H-1,2,3-triazol-4-yl)methyl)-2-(hydroxymethyl)-5-methoxy-4-(4-(2,3,4-trifluorophenyl)-1H-1,2,3-triazol-1-yl)tetrahydro-2H-pyran-3-ol]	30 nM	290 nM
CO[C@@H]1[C@@H](n2cc(-c3ccc(F)c(F)c3F)nn2)[C@@H](O)[C@@H](CO)O[C@@H]1Cn1cc(C23CC(C2)C3)nn1 [Ex 3.2.12.]	40 nM	970 nM
CO[C@@H]1[C@@H](n2cc(-c3ccc(Cl)c(F)c3F)nn2)[C@@H](O)[C@@H](CO)O[C@@H]1Cc1cn(C2CCC2(F)F)nn1 (single isomer, unassigned) [Example 2.1.63.A]	60 nM	2170 nM
CO[C@@H]1[C@@H](n2cc(-c3ccc(Br)c(F)c3F)nn2)[C@@H](O)[C@@H](CO)O[C@@H]1Cc1cn(C23CC(F)(C2)C3)nn1 [Ex 4.1.25., (2R,3R,4S,5R,6R)-4-(4-(4-bromo-2,3-difluorophenyl)-1H-1,2,3-triazol-1-yl)-6-((1-(3-fluorobicyclo[1.1.1]pentan-1-yl)-1H-1,2,3-triazol-4-yl)methyl)-2-(hydroxymethyl)-5-methoxytetrahydro-2H-pyran-3-ol]	50 nM	3220 nM
